Measured values taken from ChEMBL document CHEMBL5036330, “Discovery of 8,9-seco-ent-Kaurane Diterpenoids as Potential Leads for the Treatment of Triple-Negative Breast Cancer” (J Med Chem, 2021).
The source made the active and inactive calls. The calls are words filed in the database; no cut-off is given here.

System: MDA-MB-468
Assay: Antitumor activity against human MDA-MB-468 cells xenografted in NOD/SCID mouse assessed as decrease in CD31 expression in tumor tissue at 5 to 10 mg/kg, ip treated for 33 days by immunohistochemical analysis
Format: functional, organism-based
Settings: dose 5-10 mg/kg, time 33.0 day

## C=C1C(=O)C2=C[C@H]1CCC(=O)[C@]1(C)[C@H](O)CCC(C)(C)[C@H]1C[C@H]2O
  Activity: Active
